Source: US6177592A, “Compounds” (priority 1997, dated 2001)

What was measured:
NIH 3T3 = assay: Colony formation of NIH 3T3 cells; assay type: cell-based; settings: 5 μM GM, nine days; control 91.7 ± 11.9
Method: NIH 3T3 cells were incubated at 37° C. under the condition of 5% CO2 in a Dulbecco-modified Eagle's medium containing 10% of calf serum.
(2) NIH 3T3 cells, the cells strains into which control vector was introduced and the cell strains into which E7 was introduced were made to grow to an extent of 50-70% confluence in a Dulbecco-modified Eagle's medium containing 10% of calf serum using a 100 mm-tissue culture plate and washed with PBS and the cells were peeled off with a 0.25% trypsin-EDTA solution and suspended in 5 ml of Dulbecco-modified Eagle's medium containing 10% of calf serum.
A part of the suspension was taken out and cell density was counted by a Neubauer's hemocytometer. Based upon the resulting data, it was diluted with a Dulbecco-modified Eagle's medium containing 10% of calf serum and planted on a tissue culture plate having a diameter of 60 mm to make 200 cells/plate and incubation was started in 3 ml of the medium. After 24 hours from the initiation of the incubation, GM was added thereto to make its concentration 5 μM. After additional 24 hours, the medium was exchanged with a fresh one and GM was added thereto to make its concentration 5 μM.
After that, the medium was exchanged with a fresh one every two to three days followed by adding GM thereto to make its concentration 5 μM. […]

Fas antigen [1] = assay: Fas antigen expression in Molt-3 cells; assay type: cell-based, human
Method: (§1) (2) Influence of GM on Fas antigen expression (productive induction) in Jurkat cells and Molt-3 cells was measured as follows. In a 10% FCS-containing RPMI 1640 medium containing 0, 1, 5, 10 or 20 μM of cyclopentenone or GM, 5×10^5 cell/ml of Jurkat cells or Molt-3 cells were incubated at 37° C. for 24 hours in the presence of 5% of CO2 and then subjected to a two-step immunostaining using an anti-Fas antibody (manufactured by Boehringer-Ingelheim) in accordance with a method of Munker [Munker, R.: Ann. Hematol., volume 70, pages 15-17 (1995)].
(§2) Fluorescence intensity of the stained 1×10^4 cells was measured by a flow cytometer (Orthocytron; manufactured by Ortho Diagnostic Systems) and ratio of the cell showing a predetermined or higher fluorescence intensity which were Fas antigen-expressing cells was calculated.
(3) Molt-3 cells were incubated for 1, 3, 6, 12 or 24 hours after addition of 10 (i M of GM by the same manner as in Example 12-(2) and then the ratio of the cells which expressed Fas antigen was measured by the same method as in Example 12-(2)sa

[2] = test system: sensitivity reaction of a delayed type; assay: Delayed type hypersensitivity (ovine erythrocyte, pedal edema); assay type: in vivo, mouse (C57BL/6); settings: 30 and 300 mg/kg i.p., three days
Method: C57BL/6 mice (female, five weeks age, body weight about 20 g) were purchased from Nippon SLC and used for the experiment after a preliminary breeding for one week at our end. Ovine erythrocyte (manufactured by Shimizu Jikken Zairyo) which is an antigen provoking the sensitivity reaction of a delayed type was washed three times with a physiological saline solution (manufactured by Otsuka Pharmaceutical) to make […] and 203 μl of it was intraperitoneally injected to mice to subject to an antigen sensitization.
After five days from the sensitization, 40 μl of antigen which was prepared by the same manner was injected to right paw to induce an antigen whereby pedal edema was provoked. From the antigen-sensitized date, GM was intraperitoneally administered to mice (one group consisting of five mice) once daily at the dose of 30 mg/kg or 300 mg/kg for three days.
After two days from the antigen induction, volume of right paw of the mice was measured by a measuring device for pedal edema (manufactured by Ugo Basile) and used as an index for the sensitivity reaction of a delayed type. The measured value was given by calculating the increasing rate from the right paw volume of the mice measured before the antigen induction.

CEM-SS cells = assay: Survival rate of CEM-SS cells; assay type: cell-based; settings: one day
Method: GM (0, 4, 8 or 16 μM) was added to 2×10^5 cell/ml of CEM-SS cells (ATCC CCL-119) and to CEM-SS cells infected with HIV-1IIIB (wherein not less than 90% of the CEM-SS cells were infected with the HIV-1IIIB; hereinafter, referred to as CEM-3B) incubation was conducted for one day, viable cell numbers and dead cell numbers were counted and survival cell rate was calculated.

Fas antigen [3] = assay: Fas antigen expression in Jurkat cells; assay type: cell-based, human; settings: 1-10 μM, 24 hours
Method: as §1, §2

topoisomerase I = target: T1, topoisomerase I (Homo sapiens, UniProt P11387); assay: Topoisomerase I inhibition; assay type: biochemical; settings: 1 mM GM
T1 construct: pBR322 supercoil relaxation assay
T1 sequence (P11387 whole entry): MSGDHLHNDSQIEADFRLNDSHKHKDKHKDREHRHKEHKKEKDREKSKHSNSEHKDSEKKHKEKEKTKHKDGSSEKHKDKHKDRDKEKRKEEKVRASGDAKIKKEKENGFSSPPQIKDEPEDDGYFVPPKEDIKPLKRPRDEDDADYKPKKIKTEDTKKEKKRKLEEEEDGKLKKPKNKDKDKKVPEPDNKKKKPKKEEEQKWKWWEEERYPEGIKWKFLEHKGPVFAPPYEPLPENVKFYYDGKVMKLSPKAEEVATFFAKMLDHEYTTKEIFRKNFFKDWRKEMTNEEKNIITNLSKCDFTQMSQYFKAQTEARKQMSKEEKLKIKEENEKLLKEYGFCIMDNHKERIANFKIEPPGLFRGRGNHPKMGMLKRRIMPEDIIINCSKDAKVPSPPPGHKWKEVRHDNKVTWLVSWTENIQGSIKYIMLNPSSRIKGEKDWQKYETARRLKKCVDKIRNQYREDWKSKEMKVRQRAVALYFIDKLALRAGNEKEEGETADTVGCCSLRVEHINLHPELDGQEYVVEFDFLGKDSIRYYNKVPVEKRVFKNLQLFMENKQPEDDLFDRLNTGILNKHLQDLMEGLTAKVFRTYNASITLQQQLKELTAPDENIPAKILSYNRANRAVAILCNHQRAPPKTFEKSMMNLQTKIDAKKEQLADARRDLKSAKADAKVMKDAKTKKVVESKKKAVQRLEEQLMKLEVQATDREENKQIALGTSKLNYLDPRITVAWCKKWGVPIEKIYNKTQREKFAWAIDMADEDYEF
Method: (2) Activity of GM for inhibiting the topoisomerase I was measured by the same method as in Example 17-(1) except that topoisomerase I [manufacturedby TopoGEN, 0.01 unit/y 1] was used instead of topoisomerase II; and 100 mM Tris-HCl (pH 7.9), 10 mM EDTA, 1 mM spermidine and 50% glycerol were used as a buffer with a ten-fold diluted concentration. Incidentally, as a sample, GM was added to make the final concentration 1 mM.

Meth A cells = assay: Meth A subcutaneous tumor growth in BALB/c mice; assay type: in vivo, mouse; settings: 5 mg/kg/day s.c., five days; after two weeks
Method: GM was diluted with a physiological saline solution to a predetermined concentration and subjected to the following tests.
(1) Meth A cells (2×10^6 cells/mouse) were subcutaneously injected to abdomen of female BALB/c mice (body weight: about 20 g) of eight weeks age. After that, GM (5 mg/kg/day) was subcutaneously injected for consecutive five days to the same site. On the other hand, a physiological saline solution was subcutaneously injected to the control group by the same manner. After two weeks, the cancer tissues generated in abdomen of the mice were excised and their weight were measured.

N[C@@H](CCC(=O)N[C@@H](CSC1C=C(O)C(=O)C1)C(=O)NCC(=O)O)C(=O)O (stereo partly drawn) [GM, 2-hydroxy-4-glutathion-S-yl-2-cyclopenten-1-one]
Numbers of Colonies (Mean Value ± SD) (NIH 3T3): 79.0 ± 2.6
ratio of Fas antigen-expressing cells, time course (Fas antigen [1]; 10 μM, 1-24 hours): increased after 12 hours from the incubation and further increase was noted after 24 hours
ratio of Fas antigen-expressing cells (Fas antigen [1]; 1-10 μM, 24 hours): the ratio of Fas antigen-expressing cells increased on a concentration-dependent manner
inhibiting action to a sensitivity reaction of a delayed type [2]: significant inhibiting action to a sensitivity reaction of a delayed type
survival rate of cells (CEM-SS cells; 16 μM): the survival rate of CEM-SS cells decreased as well
survival rate of cells (CEM-SS cells; 4 or 8 μM): survival rate did not decrease in CEM-SS cells
ratio of Fas antigen-expressing cells (Fas antigen [3]): the ratio of Fas antigen-expressing cells increased on a concentration-dependent manner
inhibition of topoisomerase I (topoisomerase I): topoisomerase I was inhibited by 1 mM GM
inhibiting action to the growth of cancer (weight of cancer tissues) (Meth A cells): significant inhibiting action to the growth of cancer
